# Results taken from US8299040B2, “Methods for treating cancer targeting transglutaminase” (Board of Regents, The University of Texas System, priority 2006, dated 2012).
# Key:
# [1] = test system: MDA-Panc28 cells; test: Apoptosis in MDA-Panc28 cells (sub-G1 FACS, PARP cleavage); type: cell-based, human
# Description: PARP cleavage positive cell lysate was used as a positive control. (C) Morphological changes after treatment with rottlerin. Microphotographs were taken using a phase-contrast microscope (300× magnification). Left panel, untreated cells at 48 h of treatment; center panel, cells treated for 48 h, and right panel, cells treated for 96 h.
# [2] = test system: Beclin 1; test: Beclin 1 expression in MDA-Panc28 cells; type: cell-based, human; details: MDA-Panc28, data not shown
# [3] = test system: TG2; test: TG2 transcript level in MDA-Panc28 cells (RT-PCR); type: cell-based, human
# Description: Cells were collected for isolation of total RNA. Total cellular RNA was isolated with Trizol reagent (Invitrogen/Life Technologies, Carlsbad, Calif., USA), and cDNA was obtained from 5 μg of total RNA using a Superscript II RT kit (Invitrogen/Life Technologies). Briefly, 5 μl of the total 20 μl of reverse-transcribed product was used for PCR in 1×PCR buffer containing 1.5 mM MgCl2, 250 μM dNTPs, 0.5 units of Taq polymerase (Invitrogen/Life Technologies), and 100 ng of TG2 primer (primer 1,5′-[…]-3′; primer II, 5′-[…] GAGCAGG-3′) or β-actin-specific primer (Sigma-Genosys, Houston, Tex., USA). Thirty cycles were used for PCR analysis. The reaction products were analyzed on a 2% agarose gel containing ethidium bromide, and cDNA synthesis was verified by detection of the β-actin transcript, which was used as an internal control.
# [4] = molecular target: T1, PKCδ (Homo sapiens, UniProt Q05655); test: PKCδ protein expression in MDA-Panc28 cells (western blot); type: cell-based; details: 48 h
# T1 construct: endogenous in cells; host or cells: MDA-Panc28
# T1 sequence (Q05655 whole entry): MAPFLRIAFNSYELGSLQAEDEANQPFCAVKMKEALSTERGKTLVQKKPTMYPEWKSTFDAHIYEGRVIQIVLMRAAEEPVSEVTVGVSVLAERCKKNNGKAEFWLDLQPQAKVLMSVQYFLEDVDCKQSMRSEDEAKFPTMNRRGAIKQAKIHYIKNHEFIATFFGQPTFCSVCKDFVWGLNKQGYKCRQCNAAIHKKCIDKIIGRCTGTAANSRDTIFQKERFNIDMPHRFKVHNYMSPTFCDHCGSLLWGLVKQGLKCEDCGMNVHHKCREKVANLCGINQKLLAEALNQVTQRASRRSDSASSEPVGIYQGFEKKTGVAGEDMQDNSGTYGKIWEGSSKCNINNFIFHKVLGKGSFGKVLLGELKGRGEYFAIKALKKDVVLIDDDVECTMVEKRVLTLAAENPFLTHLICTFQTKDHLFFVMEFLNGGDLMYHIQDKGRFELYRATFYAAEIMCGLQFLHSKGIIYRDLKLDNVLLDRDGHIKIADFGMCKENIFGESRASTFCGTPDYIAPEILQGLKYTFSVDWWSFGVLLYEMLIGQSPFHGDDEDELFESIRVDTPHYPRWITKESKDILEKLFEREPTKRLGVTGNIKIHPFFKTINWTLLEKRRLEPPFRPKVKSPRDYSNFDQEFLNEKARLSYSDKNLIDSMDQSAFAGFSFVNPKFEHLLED
# Description: (A) Cells at 80% confluence were treated with 1 μM, 2 μM or 4 μM rottlerin. After 48 h of treatment, the cells were lysed and cell lysates were fractionated by sodium dodecyl sulfate polyacrylamide gel electrophoresis (SDS-PAGE) and transferred onto nitrocellulose membrane to determine PKCδ and TG2 protein expression by western blot analysis. […] Experiments were repeated at least three times.
# After treatment, the cells were collected and centrifuged, and whole-cell lysates were obtained using a lysis buffer. Total protein concentration was determined using a DC protein assay kit (Bio-Rad, Hercules, Calif., USA). […] Aliquots containing 30 μg of total protein from each sample were subjected to sodium dodecyl sulfate-polyacrylamide gel electrophoresis (SDS-PAGE) with a 4-20% gradient and electrotransferred to nitrocellulose membranes. The membranes were blocked with 5% dry milk in tris-buffered saline-tween 20 (TBST), probed with primary antibodies diluted in TBST containing 2.5% dry milk and incubated at 4° C. overnight. […] Mouse anti-β-actin and donkey anti-mouse secondary antibody were purchased from Sigma Chemical (St. Louis, Mo., USA) so that β-actin expression could be monitored to ensure equal loading of proteins. […] The blots were visualized with a Fluor Chem 8900 imager and quantified by a densitometer using the Alpha Imager application program (Alpha Innotech). […]
# [5] = test system: MDA-Panc28 cells; test: Growth inhibition in MDA-Panc28 cells; type: cell-based; details: Homo sapiens, MDA-Panc-28; 4 μM for 48 h; read-out: inhibition in cell growth
# Description: Pancreatic cell lines MDA-Panc28, Capan-2, Bx-PC3, Panc1 and MIAPaCa were provided by Dr. Shrikant Reddy (M. D. Anderson Cancer Center). MDA-Panc28 and Bx-PC3 cell lines were maintained in RPMI-1640 medium supplemented with 10% fetal calf serum. Panc1 and MIAPaCa cell lines and Capan-2 cells were maintained in DMEM and McCoy's 5A, respectively. All media were supplemented with 10% fetal calf serum. For the cell proliferation experiments, cells were seeded at a density of 1-2×10^5 cells in T-25 tissue culture flasks. Twenty-four hours after the seeding, cells were treated with various concentrations of rottlerin for the indicated periods of time. Adherent cells were collected by trypsinization, and cell numbers were determined using a Neubauer cell counting chamber. All experiments were replicated at least two times.
# [6] = test system: MDA-Panc28, Capan-2, Bx-PC3, Panc1 and MIAPaCa cells; test: LC3-II accumulation (autophagy) in pancreatic cancer cell lines, western blot; type: cell-based, human; details: 4 μM for 48 h
# Description: (§1) (A) A panel of pancreatic cancer cell lines including MDA-Panc28, Capan-2, Bx-PC3, Panc1 and MIAPaCa cells were treated with Rottlerin (4 μM) for 48 h for the detection of LC3-II and TG2 expression by western blot. (B) MCF-7 cell line was also tested for LC3-II and TG2 expression by western blot. (C) Expression of TG2 in MDA-Panc28 cells was determined upon exposure to different treatments (D) Detection of autophagolysosomes; MDA-Panc28 cells were treated with either control siRNA, Rottlerin or TG2 siRNA for 48 h. Photomicrographs show morphological changes of the cells by phase contrast microscopy (left panels); acridine orange staining of the acidic vesicular organelles by fluorescent microscopy (center panels) and the localization LC3-II at autophagosomes in cells after transfection with GFP-LC3 plasmid (right panels). […]
# (§2) After treatment, the cells were collected and centrifuged, and whole-cell lysates were obtained using a lysis buffer. Total protein concentration was determined using a DC protein assay kit (Bio-Rad, Hercules, Calif., USA). […] Mouse anti-β-actin and donkey anti-mouse secondary antibody were purchased from Sigma Chemical (St. Louis, Mo., USA) so that β-actin expression could be monitored to ensure equal loading of proteins. […] The blots were visualized with a Fluor Chem 8900 imager and quantified by a densitometer using the Alpha Imager application program (Alpha Innotech). […]
# [7] = test system: mTOR; test: mTOR pathway phosphorylation in MDA-Panc28 cells (western blot); type: cell-based, human
# Description: (A) Phosphorylated mTOR was detected after 48 h of treatment with various doses of rottlerin, cells were subjected to western blot analysis. Phosphorylation of mTOR was inhibited in a dose-dependent manner. (B) MDA-Panc28 cells were treated with a specific mTOR inhibitor, rapamycin (at either 20 nM or 100 nM), TG2 siRNA or left untreated.
# as §2, with “USA). Rottlerin and mTOR inhibitor (rapamycin) were purchased from Calbiochem (La Jolla, Calif., USA). Aliquots containing 30 μg of total protein from each sample were subjected to sodium dodecyl sulfate-polyacrylamide gel electrophoresis (SDS-PAGE) with a 4-20% gradient and electrotransferred to nitrocellulose membranes.” for “USA).”
# [8] = test system: TG2; test: TG2 expression in pancreatic cancer cell lines (western blot); type: cell-based, human; details: 4 μM for 48 h, all pancreatic cancer cell lines tested
# Description: as §1, §2
smiles,measurement,setting,value
CC(=O)c1c(O)c(C)c(O)c(Cc2c(O)c3c(c(C(=O)/C=C/c4ccccc4)c2O)OC(C)(C)C=C3)c1O [rottlerin],apoptosis (accumulation in sub-G1 phase),"[1]; 4 μM for 48 h, FACS",failed to promote any apoptosis
same,PARP cleavage,[1]; Western blot,failed to show any poly ADP-ribose polymerase (PARP) cleavage
same,Beclin 1 expression,[2],Expression levels did not change
same,effect on TG2 expression at the level of transcription,[3],inhibitory effect
same,inhibition of PKCδ protein expression,[4]; 2 μM,72%
same,inhibition of PKCδ protein expression,[4]; 4 μM,94%
same,inhibition at 4 µM,[5],49%
same,endogenous LC3-II accumulation,[6],significant increase in endogenous LC3-II accumulation
same,phosphorylated mTOR (p-mTOR),"[7]; MDA-Panc28, 48 h",downregulated phosphorylated mTOR (p-mTOR)
same,p-p70S6K,"[7]; MDA-Panc28, data not shown",downregulated
same,TG2 expression,[8],parallel decrease in TG2 expression
